According to US20250145606A1 (Arcus Biosciences, Inc., priority 2023, published 2025):

What was measured:
Conditions in all cases: biochemical, HTRF KinEASE-TK
c-Kit = c-Kit (Homo sapiens (Human), UniProt P10721); assay: Inhibition of c-Kit kinase activity (HTRF KinEASE-TK); type: biochemical
Method: (§1) Inhibition of c-Kit, PDGFRα, PDGFRβ, CSFIR and FLT3 Kinase Activity
(§2) Compounds were evaluated to determine the potency with which they inhibit the kinase activity of the following panel of tyrosine kinases: c-Kit (SignalChem, Product #: K06-11BG), PDGFRα (SignalChem, Product #: P12-18G), PDGFRβ (SignalChem, Product #: P13-11G), CSFIR (SignalChem, Product #: C74-11G) and FLT3 (Invitrogen, Product #: PR4666C). Activity was determined as a function of phosphorylated biotinylated TK peptide generated by the transfer of phosphate from ATP as measured by the use of the HTRF KinEASE-TK assay kit (Cisbio, Product #: 62TKOPEJ). Levels of phosphorylated biotinylated TK peptide (Part 61TKOBLC of KinEASE assay kit) are quantified by its capture by phosphor-TK-Antibody-Cryptate (Part of KinEASE assay kit) and XL665-labeled Streptavidin (Part 610SAXLG of KinEASE assay kit) followed by measurement of Time-Resolved Fluorescence Resonance Energy Transfer (TR-FRET) signal. On the day of the assay, compounds were solubilized in DMSO and dispensed into a 384-well white Opti-plate (PerkinElmer, catalog #6007290) to generate a 22 point 1:2 titration. Enzyme solution was prepared for each of the tyrosine kinases in 50 mM HEPES, pH 7.4, 5 mM MgCl2 for c-Kit or 10 mM MgCl2 for FLT3, CSFIR, PDGFRa and PDGFRβ, 2 mM MnCl2, 0.01% Brij-35 and 0.01% BSA. Working enzyme concentrations were prepared for c-Kit at 2 nM (2×), PDGFRa and PDGFRß at 10 nM (2×), CSFIR at 2 nM (2×) and FLT3 at 0.4 nM (2×). Five microliters of enzyme dilution of each tyrosine kinase were added to their respective 384-well white Opti-plate pre-dispensed with compound and allowed to incubate for 1 h at rt. Utilizing the same enzyme buffer recipe, 2x substrate mixes were prepared for each enzyme as follows: For c-Kit, 1.6 μM (2×) TK substrate and 16 μM (2×) ATP (Promega, catalog #V915). For PDGFRα, 3.2 μM TK substrate and 1 μM ATP. For PDGFRβ, 3.2 μM TK substrate and 40 μM ATP. For CSFIR, […] TK substrate and 20 μM ATP. For FLT3, 3.2 μM TK substrate and 100 μM ATP. Reactions were initiated by addition of 5 μL of the respective 2x substrate mix to each well of the plates containing the respective tyrosine kinase enzymes and were allowed to proceed for 120 minutes at rt, except for FLT3, the reaction time is 45 min. Following the reaction, 10 μL of detection mix consisting of 0.2 μM (2×) of Streptavidin-XL665 and 2 μM (2×) of TK-Antibody-Cryptate prepared in detection buffer (Part 62SDBRDF of KinEASE assay kit) was added and then allowed to incubate for 60 min. The TR-FRET signal was quantified by measuring the ratio of emission at 665 nm to 620 nm after excitation at 320 nm by reading on a PerkinElmer Envision multimode reader. Compound potencies (IC50 values) were determined using a standard 4-parameter non-linear regression fit.

PDGFRα = PDGFRα (Homo sapiens (Human), UniProt P16234); assay: Inhibition of PDGFRα kinase activity (HTRF KinEASE-TK)
Method: as §1, §2

PDGFRβ = PDGFRβ (Homo sapiens (Human), UniProt P09619); assay: Inhibition of PDGFRβ kinase activity (HTRF KinEASE-TK)
Method: as §1, §2

CSF1R = CSF1R (Homo sapiens (Human), UniProt P07333); assay: Inhibition of CSF1R kinase activity (HTRF KinEASE-TK)
Method: as §1, §2

c-Kit, sequence (P10721 26-976): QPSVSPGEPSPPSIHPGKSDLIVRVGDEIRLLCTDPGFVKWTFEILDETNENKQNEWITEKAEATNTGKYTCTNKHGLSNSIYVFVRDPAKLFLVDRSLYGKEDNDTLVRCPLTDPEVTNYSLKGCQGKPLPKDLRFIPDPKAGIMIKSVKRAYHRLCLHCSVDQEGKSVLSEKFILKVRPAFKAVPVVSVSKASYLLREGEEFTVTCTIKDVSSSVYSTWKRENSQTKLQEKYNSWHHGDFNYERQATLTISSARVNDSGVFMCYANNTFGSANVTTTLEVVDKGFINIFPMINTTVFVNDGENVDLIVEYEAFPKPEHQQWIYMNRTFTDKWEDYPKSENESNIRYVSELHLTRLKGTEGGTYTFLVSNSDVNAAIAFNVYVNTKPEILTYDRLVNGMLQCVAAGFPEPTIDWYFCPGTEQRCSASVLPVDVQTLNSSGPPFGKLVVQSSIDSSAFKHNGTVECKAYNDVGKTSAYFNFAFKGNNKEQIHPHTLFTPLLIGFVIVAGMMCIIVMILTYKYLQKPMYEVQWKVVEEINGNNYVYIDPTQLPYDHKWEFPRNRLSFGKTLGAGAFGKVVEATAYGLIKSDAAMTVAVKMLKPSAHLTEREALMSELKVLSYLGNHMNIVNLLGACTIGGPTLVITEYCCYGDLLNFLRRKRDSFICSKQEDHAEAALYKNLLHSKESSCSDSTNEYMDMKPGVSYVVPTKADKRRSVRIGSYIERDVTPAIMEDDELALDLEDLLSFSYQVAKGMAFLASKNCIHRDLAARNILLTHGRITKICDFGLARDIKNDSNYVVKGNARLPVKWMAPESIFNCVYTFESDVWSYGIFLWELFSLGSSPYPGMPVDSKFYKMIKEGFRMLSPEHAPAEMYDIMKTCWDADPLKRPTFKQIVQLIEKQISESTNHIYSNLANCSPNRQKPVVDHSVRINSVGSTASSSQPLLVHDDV
CSF1R, sequence (P07333 20-972): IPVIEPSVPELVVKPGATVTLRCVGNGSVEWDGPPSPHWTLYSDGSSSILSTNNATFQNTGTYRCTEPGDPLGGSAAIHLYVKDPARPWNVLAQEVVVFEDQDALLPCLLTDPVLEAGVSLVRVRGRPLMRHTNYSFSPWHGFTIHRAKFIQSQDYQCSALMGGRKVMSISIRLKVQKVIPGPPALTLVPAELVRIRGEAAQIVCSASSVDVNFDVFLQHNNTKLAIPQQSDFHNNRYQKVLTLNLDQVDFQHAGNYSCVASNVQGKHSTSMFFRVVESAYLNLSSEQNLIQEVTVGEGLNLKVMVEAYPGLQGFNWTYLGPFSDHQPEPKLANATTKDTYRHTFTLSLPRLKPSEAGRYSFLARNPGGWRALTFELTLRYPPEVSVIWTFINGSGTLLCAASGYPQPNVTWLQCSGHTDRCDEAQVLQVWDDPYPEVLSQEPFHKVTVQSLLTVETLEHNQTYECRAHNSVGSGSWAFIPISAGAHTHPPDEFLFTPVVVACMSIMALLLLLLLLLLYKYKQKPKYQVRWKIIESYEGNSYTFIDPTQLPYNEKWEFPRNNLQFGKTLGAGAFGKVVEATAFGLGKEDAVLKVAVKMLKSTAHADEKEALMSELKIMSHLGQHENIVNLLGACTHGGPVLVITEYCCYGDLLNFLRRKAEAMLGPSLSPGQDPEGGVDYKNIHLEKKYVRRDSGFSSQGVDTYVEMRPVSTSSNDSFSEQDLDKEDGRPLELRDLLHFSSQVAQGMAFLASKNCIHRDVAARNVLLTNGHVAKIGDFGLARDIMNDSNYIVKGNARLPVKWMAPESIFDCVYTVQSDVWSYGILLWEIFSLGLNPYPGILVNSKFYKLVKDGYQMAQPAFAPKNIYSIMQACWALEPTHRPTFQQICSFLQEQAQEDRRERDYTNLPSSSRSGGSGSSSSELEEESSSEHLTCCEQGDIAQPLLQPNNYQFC
PDGFRα, sequence (P16234 24-1089): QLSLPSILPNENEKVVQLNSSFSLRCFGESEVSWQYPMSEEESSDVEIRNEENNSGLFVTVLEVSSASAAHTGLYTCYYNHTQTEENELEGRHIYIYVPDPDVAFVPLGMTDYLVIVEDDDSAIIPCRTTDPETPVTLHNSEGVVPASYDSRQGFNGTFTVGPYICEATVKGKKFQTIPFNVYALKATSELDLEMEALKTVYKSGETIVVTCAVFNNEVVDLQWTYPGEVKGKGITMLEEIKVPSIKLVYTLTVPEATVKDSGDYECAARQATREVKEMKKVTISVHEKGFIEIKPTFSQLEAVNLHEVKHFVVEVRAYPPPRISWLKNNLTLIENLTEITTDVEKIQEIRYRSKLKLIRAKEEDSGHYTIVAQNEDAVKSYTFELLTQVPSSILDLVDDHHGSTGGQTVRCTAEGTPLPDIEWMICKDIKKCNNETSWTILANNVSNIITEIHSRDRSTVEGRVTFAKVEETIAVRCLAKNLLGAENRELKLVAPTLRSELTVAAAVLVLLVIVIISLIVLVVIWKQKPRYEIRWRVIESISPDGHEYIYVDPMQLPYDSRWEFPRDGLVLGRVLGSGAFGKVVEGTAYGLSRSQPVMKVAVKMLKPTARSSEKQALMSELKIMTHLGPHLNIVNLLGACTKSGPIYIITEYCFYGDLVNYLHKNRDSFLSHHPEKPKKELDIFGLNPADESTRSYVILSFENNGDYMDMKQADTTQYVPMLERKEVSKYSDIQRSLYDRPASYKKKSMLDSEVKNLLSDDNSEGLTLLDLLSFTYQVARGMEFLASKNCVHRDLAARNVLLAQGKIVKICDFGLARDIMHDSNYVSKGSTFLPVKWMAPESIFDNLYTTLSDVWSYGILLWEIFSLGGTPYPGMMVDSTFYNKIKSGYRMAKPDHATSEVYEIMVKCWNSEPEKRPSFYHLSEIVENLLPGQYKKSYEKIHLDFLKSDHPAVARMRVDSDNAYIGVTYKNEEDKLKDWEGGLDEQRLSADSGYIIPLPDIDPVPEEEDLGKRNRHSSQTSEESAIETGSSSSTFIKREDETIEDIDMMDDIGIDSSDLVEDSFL
PDGFRβ, sequence (P09619 33-1106): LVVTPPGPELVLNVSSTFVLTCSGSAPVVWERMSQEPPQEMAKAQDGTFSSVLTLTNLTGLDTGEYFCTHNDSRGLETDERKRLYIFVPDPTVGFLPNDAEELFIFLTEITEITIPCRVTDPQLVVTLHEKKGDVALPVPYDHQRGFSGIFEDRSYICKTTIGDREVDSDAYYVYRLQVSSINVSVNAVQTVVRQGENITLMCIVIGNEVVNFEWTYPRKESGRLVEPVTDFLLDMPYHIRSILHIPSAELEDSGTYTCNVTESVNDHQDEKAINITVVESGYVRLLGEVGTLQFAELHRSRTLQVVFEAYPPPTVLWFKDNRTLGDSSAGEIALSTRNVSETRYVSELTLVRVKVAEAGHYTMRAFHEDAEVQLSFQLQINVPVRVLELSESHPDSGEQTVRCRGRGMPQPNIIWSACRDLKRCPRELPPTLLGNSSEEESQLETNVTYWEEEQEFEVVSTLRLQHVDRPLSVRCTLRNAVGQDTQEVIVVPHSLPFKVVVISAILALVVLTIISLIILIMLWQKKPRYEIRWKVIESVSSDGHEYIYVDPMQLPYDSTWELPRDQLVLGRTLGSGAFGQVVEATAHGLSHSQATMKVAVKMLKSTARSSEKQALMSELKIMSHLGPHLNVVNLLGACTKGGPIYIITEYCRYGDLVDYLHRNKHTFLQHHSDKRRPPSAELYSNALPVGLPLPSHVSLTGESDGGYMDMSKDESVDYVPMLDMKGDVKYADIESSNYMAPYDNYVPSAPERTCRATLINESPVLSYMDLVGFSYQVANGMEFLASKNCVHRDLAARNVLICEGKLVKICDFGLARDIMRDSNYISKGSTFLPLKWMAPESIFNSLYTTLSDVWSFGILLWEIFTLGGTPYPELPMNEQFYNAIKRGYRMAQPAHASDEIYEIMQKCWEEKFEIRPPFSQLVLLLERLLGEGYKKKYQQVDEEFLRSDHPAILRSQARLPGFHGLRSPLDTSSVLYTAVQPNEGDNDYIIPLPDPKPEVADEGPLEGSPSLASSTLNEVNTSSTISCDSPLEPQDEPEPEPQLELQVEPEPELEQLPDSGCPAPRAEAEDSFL

SMILES | IC50 (c-Kit) [nM] | IC50 (PDGFRα) [nM] | IC50 (PDGFRβ) [nM] | IC50 (CSF1R) [nM]
Cc1ncc(C(=O)Nc2cc(C(=O)Nc3ccn(C(F)F)n3)c(F)cc2C)s1 [Example 69, N-[5-[[1-(difluoromethyl)pyrazol-3-yl]carbamoyl]-4-fluoro-2-methylphenyl]-2-methyl-1,3-thiazole-5-carboxamide] | 100 to 1000 | > 1000 | > 1000 | > 1000
Cc1cc(F)c(C(=O)Nc2cc3c(cn2)COC3)cc1NC(=O)c1cnc(N)s1 [Example 112, 2-Amino-N-[5-(1,3-dihydrofuro [3,4-c]pyridin-6-ylcarbamoyl)-4-fluoro-2-methylphenyl]-1,3-thiazole-5-carboxamide] | < 100 | > 1000 | 100 to 1000 | 100 to 1000
CO[C@H]1C[C@@H](n2nccc2NC(=O)c2cc(NC(=O)c3cnc(N)s3)c(C)cc2F)C1 [Example 186, 2-Amino-N-[4-fluoro-5-[[2-(cis-3-methoxycyclobutyl)pyrazol-3-yl]carbamoyl]-2-methylphenyl]-1,3-thiazole-5-carboxamide] | 100 to 1000 | > 1000 | > 1000 | > 1000
Cc1cc(F)c(NC(=O)c2cnc(N)s2)cc1C(=O)Nc1ccc(OC2CC2)cn1 [Example 223, 2-Amino-N-[5-[(5-cyclopropyloxypyridin-2-yl)carbamoyl]-2-fluoro-4-methylphenyl]-1,3-thiazole-5-carboxamide] | 100 to 1000 | > 1000 | > 1000 | > 1000
Cc1cc(F)c(C(=O)Nc2nnc(C3CC3)s2)cc1NC(=O)c1cnc(N)s1 [Example 175, 2-Amino-N-[5-[(5-cyclopropyl-1,3,4-thiadiazol-2-yl)carbamoyl]-4-fluoro-2-methylphenyl]-1,3-thiazole-5-carboxamide] | < 100 | 100 to 1000 | < 100 | < 100
Cc1cc(F)c(C(=O)N[C@H]2C[C@@H](C#N)C2)cc1NC(=O)c1cnc(N)s1 [Example 126, 2-Amino-N-[5-[(3-cyanocyclobutyl)carbamoyl]-4-fluoro-2-methylphenyl]-1,3-thiazole-5-carboxamide] | < 100 | 100 to 1000 | > 1000 | > 1000
Cc1cc(F)c(C(=O)N[C@H]2C[C@@H](C(N)=O)C2)cc1NC(=O)c1cnc(N)s1 [Example 127, 2-Amino-N-[5-[(3-carbamoylcyclobutyl)carbamoyl]-4-fluoro-2-methylphenyl]-1,3-thiazole-5-carboxamide] | 100 to 1000 | > 1000 | > 1000 | > 1000
COCc1ccc(NC(=O)c2cc(NC(=O)c3cnc(C)s3)c(C)cc2F)nc1 [Example 37, N-[4-fluoro-5-[[5-(methoxymethyl)pyridin-2-yl]carbamoyl]-2-methylphenyl]-2-methyl-1,3-thiazole-5-carboxamide] | 100 to 1000 | > 1000 | > 1000 | > 1000
Cc1c(F)cc(C(=O)Nc2ccc(OC3CC3)cn2)cc1NC(=O)c1cnc(N)s1 [Example 243, 2-Amino-N-[5-[(5-cyclopropyloxypyridin-2-yl)carbamoyl]-3-fluoro-2-methylphenyl]-1,3-thiazole-5-carboxamide] | < 100 | < 100 | < 100 | < 100
Cc1cc(F)c(C(=O)Nc2ncc(C(C)C)s2)cc1NC(=O)c1cnc(N)s1 [Example 146, 2-Amino-N-[4-fluoro-2-methyl-5-[(5-propan-2-yl-1,3-thiazol-2-yl)carbamoyl]phenyl]-1,3-thiazole-5-carboxamide] | < 100 | < 100 | < 100 | < 100
Cc1cc(F)c(C(=O)Nc2ccc(OC3CC3)cn2)cc1NC(=O)c1cnc(NCC(F)F)s1 [Example 235, N-[5-[(5-cyclopropyloxypyridin-2-yl)carbamoyl]-4-fluoro-2-methylphenyl]-2-(2,2-difluoroethylamino)-1,3-thiazole-5-carboxamide] | < 100 | > 1000 | 100 to 1000 | > 1000
Cc1cc(Cl)c(C(=O)Nc2ccc(OC3CC3)cn2)cc1NC(=O)c1cnc(N)s1 [Example 224, 2-Amino-N-[4-chloro-5-[(5-cyclopropyloxypyridin-2-yl)carbamoyl]-2-methylphenyl]-1,3-thiazole-5-carboxamide] | < 100 | > 1000 | 100 to 1000 | > 1000

The next lines start with the values.

IC50 (c-Kit) [nM] | IC50 (PDGFRα) [nM] | IC50 (PDGFRβ) [nM] | IC50 (CSF1R) [nM] | SMILES
< 100 | > 1000 | > 1000 | > 1000 | COc1ccc(NC(=O)c2cc(NC(=O)c3cnc(N)s3)c(F)cc2F)nc1 [Example 211, 2-Amino-N-[2,4-difluoro-5-[(5-methoxypyridin-2-yl)carbamoyl]phenyl]-1,3-thiazole-5-carboxamide]
< 100 | > 1000 | > 1000 | > 1000 | Cc1cc(F)c(C(=O)NCCCN2CCOCC2)cc1NC(=O)c1cnc(N)s1 [Example 164, 2-Amino-N-[4-fluoro-2-methyl-5-(3-morpholin-4-ylpropylcarbamoyl)phenyl]-1,3-thiazole-5-carboxamide]
< 100 | > 1000 | > 1000 | > 1000 | Cc1ncc(C(=O)Nc2cc(C(=O)Nc3cnc(C4CC4)cn3)c(F)cc2C)s1 [Example 43, N-[5-[(5-cyclopropylpyrazin-2-yl)carbamoyl]-4-fluoro-2-methylphenyl]-2-methyl-1,3-thiazole-5-carboxamide]
< 100 | > 1000 | > 1000 | > 1000 | Cc1ncc(C(=O)Nc2cc(C(=O)Nc3ccc(C(F)(F)F)nc3)c(F)cc2C)s1 [Example 26, N-[4-Fluoro-2-methyl-5-[[6-(trifluoromethyl)pyridin-3-yl]carbamoyl]phenyl]-2-methyl-1,3-thiazole-5-carboxamide]
< 100 | > 1000 | > 1000 | 100 to 1000 | Cc1nnc(NC(=O)c2cc(NC(=O)c3cnc(N)s3)c(C)cc2F)s1 [Example 162, 2-Amino-N-[4-fluoro-2-methyl-5-[(5-methyl-1,3,4-thiadiazol-2-yl)carbamoyl]phenyl]-1,3-thiazole-5-carboxamide]
< 100 | > 1000 | > 1000 | > 1000 | Cc1cc(F)c(C(=O)Nc2ccn(CC(C)(C)O)n2)cc1NC(=O)c1cnc(N)s1 [Example 153, 2-Amino-N-[4-fluoro-5-[[1-(2-hydroxy-2-methylpropyl)pyrazol-3-yl]carbamoyl]-2-methylphenyl]-1,3-thiazole-5-carboxamide]
< 100 | < 100 | < 100 | 100 to 1000 | Cc1cc(F)c(C(=O)Nc2ccc3c(c2)NC(=O)C3(C)C)cc1NC(=O)c1cnc(N)s1 [Example 183, 2-Amino-N-[5-[(3,3-dimethyl-2-oxo-1H-indol-6-yl)carbamoyl]-4-fluoro-2-methylphenyl]-1,3-thiazole-5-carboxamide]
< 100 | > 1000 | 100 to 1000 | 100 to 1000 | Cc1cc(F)c(C(=O)Nc2nc3c(s2)COCC3)cc1NC(=O)c1cnc(N)s1 [Example 145, 2-Amino-N-[5-(6,7-dihydro-4H-pyrano[4,3-d][1,3]thiazol-2-ylcarbamoyl)-4-fluoro-2-methylphenyl]-1,3-thiazole-5-carboxamide]
